# Measurements taken from patent US8278309B2, “Synthetic mimetics of host defense and uses thereof” (priority 2008, dated 2012).
# Read-outs that look alike come from different tables or passages of the source.
# How the values were obtained:
# S. aureus = experiment: MIC or MIC90 vs S. aureus (selectivity table); assay type: cell-based; conditions: * marks MIC90
# Morganella morganii = experiment: MIC broth microdilution, Gram-negative clinical isolates; assay type: cell-based
# Method: (§1) Compound A was evaluated in vitro in accordance with defined CLSI documents specific to the organisms (aerobic, anaerobic or yeast) tested in this study. Ampicillin, ceftazidime, cefuroxime, ciprofloxacin, linezolid, and vancomycin were tested alongside as comparator agents for aerobic bacteria; clindamycin and metronidazole were tested as comparators for anaerobes; fluconazole was tested as a comparator for yeast isolates. Stock solutions of Compound A were prepared in dimethyl sulfoxide (DMSO). Ampicillin, ceftazidime, cefuroxime, ciprofloxacin, linezolid, vancomycin, metronidazole, clindamycin, and fluconazole were prepared each according to its manufacturer's guideline.
# (§2) Minimum inhibitory concentrations (MICs) in μg/ml were determined according to CLSI guideline M7-A7 by broth microdilution. All aerobes were tested using Mueller-Hinton broth medium with the exception of Streptococcus spp., which were tested using cation-adjusted Mueller-Hinton broth supplemented with 2-5% lysed horse blood.
# Enterobacter cloacae = experiment: as above; assay type: cell-based
# Method: as §1, §2
# Haemophilus influenzae = experiment: as above; assay type: cell-based
# Method: as §1, §2
# Proteus vulgarisi = experiment: as above; assay type: cell-based
# Method: as §1, §2
# Klebsiella pneumoniae = experiment: as above; assay type: cell-based
# Method: as §1, §2
# Citrobacter koseri = experiment: as above; assay type: cell-based
# Method: as §1, §2
# Klebsiella oxytoca = experiment: as above; assay type: cell-based
# Method: as §1, §2
# [1] = tested on: Stenotrophomonas maltophilia; experiment: as above; assay type: cell-based
# Method: as §1, §2
# Citrobacter freundi = experiment: as above; assay type: cell-based
# Method: as §1, §2
# Providencia stuartii = experiment: as above; assay type: cell-based
# Method: as §1, §2
# Serratia marcescens = experiment: as above; assay type: cell-based
# Method: as §1, §2
# Proteus mirabilis = experiment: as above; assay type: cell-based
# Method: as §1, §2
# Escherichia coli = experiment: as above; assay type: cell-based
# Method: as §1, §2
# Staph. spp. (coagulase−) = experiment: MIC broth microdilution, Gram-positive clinical isolates; assay type: cell-based
# Method: as §1, §2
# Staph. saprophyticus = experiment: as above; assay type: cell-based; conditions: Staphylococcus saprophyticus
# Method: as §1, §2
# Staph. spidermidis = experiment: as above; assay type: cell-based
# Method: as §1, §2
# Strept. agalactiae = experiment: as above; assay type: cell-based; conditions: Streptococcus agalactiae
# Method: as §1, §2
# Entero. faecium (VRE) = experiment: as above; assay type: cell-based; conditions: Enterococcus faecium
# Method: as §1, §2
# Entero. faecalis = experiment: as above; assay type: cell-based; conditions: Enterococcus faecalis
# Method: as §1, §2
# Staph. aureus (MRSA) = experiment: as above; assay type: cell-based; conditions: Staphylococcus aureus
# Method: as §1, §2
# Strept. pyogenes = experiment: as above; assay type: cell-based; conditions: Streptococcus pyogenes
# Method: as §1, §2
# Strept. pneumoniae = experiment: as above; assay type: cell-based; conditions: Streptococcus pneumoniae
# Method: as §1, §2
# Strept. viridians = experiment: as above; assay type: cell-based
# Method: as §1, §2
# Pseudomonas aeruginosa = experiment: MIC broth microdilution, Gram-negative clinical isolates; assay type: cell-based; conditions: 2-3 isolates/organism
# Method: as §1, §2
# Acinetobacter spp. = experiment: as above; assay type: cell-based; conditions: 2-3 isolates/organism
# Method: as §1, §2
# MRSA ATCC 33591 = experiment: Serial passage resistance, MRSA; assay type: cell-based, S. aureus; conditions: serial passage at 0.5×MIC
# Method: (§3) Frozen bacterial stocks (20 μL) of S. aureus ATCC29213 or methicillin-resistant S. aureus (MRSA ATCC 33591) were inoculated into 3 mL cation-adjusted Mueller-Hinton medium and incubated at 37° C. on a shaker platform (250 rpm) overnight. The suspension was diluted to approximately 5×10^5 cfu/mL and inoculated into a polypropylene (Costar) 96-well round bottom plate (90 μL volumes). Compound stock solutions of Compound A and norfloxacin (Sigma Aldrich, St. Louis, Mo.; Catalogue# N9890) were prepared in DMSO and serial two-fold dilutions of compound were made in 0.01% acetic acid, 0.2% bovine serum albumin directly in the wells of the polypropylene plate at 10 μL/well. Final concentrations of Compound A were 50, 25, 12.5, 6.25, 3.13, 1.56, 0.78, 0.39, 0.19, 0.098, 0.049, and 0.024 μg/mL. Final concentration ranges of norfloxacin were 100, 50, 25, 12.5, 6.25, 3.13, 1.56, 0.78, 0.39, 0.19, 0.098, and 0.049 μg/mL. […] All samples were performed in triplicate. Following a 24 hour incubation at 37° C., cell growth was assessed by observing the presence of “acceptable growth”, defined by CLSI as a ≧2 mm button or definite turbidity. The MIC wells were defined as the lowest concentration where acceptable growth was not observed. For serial passage, 50 μL aliquots were taken from 2 of 3 replicate wells at 0.5×MIC and combined into 900 μL of fresh cation-adjusted Mueller-Hinton medium. The OD600 was measured and the cell suspensions were inoculated into polypropylene 96-well round bottom plates (90 μL volumes) at approximately 5×10^5 cfu/mL. Ten μL of compound stock solutions were added previously to the wells to achieve the concentration ranges for each compound described above. All samples were performed in triplicate. The plates were incubated for 24 hours at 37° C. This process was repeated for a total of 17 passages and MIC values were recorded at each passage.
# MSSA ATCC 29213 = experiment: Serial passage resistance, MSSA; assay type: cell-based, S. aureus; conditions: serial passage at 0.5×MIC
# Method: as §3
# [2] = Proteus vulgarisi, 2-3 isolates/organism, read-out: MIC
# [3] = 2-3 isolates/organism, read-out: MIC
# [4] = Staph. spidermidis, 2-3 isolates/organism, read-out: MIC
smiles,measurement,setting,value
"CC[C@H](C)[C@H](NC(=O)CN)C(=O)NCC(=O)N[C@@H](C)C(=O)N[C@H](C(=O)N[C@@H](CC(C)C)C(=O)N[C@@H](CCCCN)C(=O)N[C@H](C(=O)N[C@@H](CC(C)C)C(=O)N[C@H](C(=O)N[C@H](C(=O)NCC(=O)N[C@@H](CC(C)C)C(=O)N1CCC[C@H]1C(=O)N[C@@H](C)C(=O)N[C@@H](CC(C)C)C(=O)N[C@H](C(=O)N[C@@H](CO)C(=O)N[C@@H](Cc1c[nH]c2ccccc12)C(=O)N[C@H](C(=O)N[C@@H](CCCCN)C(=O)N[C@@H](CCCNC(=N)N)C(=O)N[C@@H](CCCCN)C(=O)N[C@@H](CCCNC(=N)N)C(=O)N[C@@H](CCC(N)=O)C(=O)N[C@@H](CCC(N)=O)C(N)=O)[C@@H](C)CC)[C@@H](C)CC)[C@@H](C)O)[C@@H](C)O)C(C)C)C(C)C [melittin, reference compound]",MIC or MIC90* S. aureus,S. aureus,2 µg/mL
CN[C@H](CC(C)C)C(=O)N[C@H]1C(=O)N[C@@H](CC(N)=O)C(=O)N[C@H]2C(=O)N[C@H]3C(=O)N[C@H](C(=O)N[C@H](C(=O)O)c4cc(O)cc(O)c4-c4cc3ccc4O)[C@H](O)c3ccc(c(Cl)c3)Oc3cc2cc(c3O[C@@H]2O[C@H](CO)[C@@H](O)[C@H](O)[C@H]2O[C@H]2C[C@](C)(N)[C@H](O)[C@H](C)O2)Oc2ccc(cc2Cl)[C@H]1O [Vancomycin],MIC,Morganella morganii,> 128 µg/mL
same,MIC,Enterobacter cloacae,> 128 µg/mL
same,MIC,Haemophilus influenzae,128 µg/mL
same,MIC,Proteus vulgarisi,> 128 µg/mL
same,MIC,Klebsiella pneumoniae,> 128 µg/mL
same,MIC,Citrobacter koseri,> 128 µg/mL
same,MIC,Klebsiella oxytoca,> 128 µg/mL
same,MIC,[1],32 to 128 µg/mL
same,MIC,Citrobacter freundi; Citrobacter,> 128 µg/mL
same,MIC,Providencia stuartii,> 128 µg/mL
same,MIC,Serratia marcescens,> 128 µg/mL
same,MIC,Proteus mirabilis,> 128 µg/mL
same,MIC,Escherichia coli,> 128 µg/mL
same,MIC,Staph. spp. (coagulase−),1 to 2 µg/mL
same,MIC,Staph. saprophyticus,1 to 2 µg/mL
same,MIC,Staph. spidermidis,2 µg/mL
same,MIC,Strept. agalactiae,0.5 µg/mL
same,MIC,Entero. faecium (VRE); VRE,> 128 µg/mL
same,MIC,Entero. faecalis,1 µg/mL
same,MIC,Staph. aureus (MRSA); MRSA,0.5 to 1 µg/mL
same,MIC,Strept. pyogenes,0.5 µg/mL
same,MIC,Strept. pneumoniae,0.5 µg/mL
same,MIC,Strept. viridians,0.5 to 1 µg/mL
CC(=O)NC[C@H]1CN(c2ccc(N3CCOCC3)c(F)c2)C(=O)O1 [Linezolid],MIC,Proteus vulgarisi; [2],> 16 µg/mL
same,MIC,Klebsiella oxytoca; [3],> 16 µg/mL
same,MIC,Staph. spidermidis; [4],0.5 to 1 µg/mL
CC(C)(O/N=C(\C(=O)N[C@@H]1C(=O)N2C(C(=O)[O-])=C(C[n+]3ccccc3)CS[C@H]12)c1csc(N)n1)C(=O)O [Ceftazidime],MIC,Pseudomonas aeruginosa,1 to 8 µg/mL
same,MIC,Morganella morganii; [3],2 to 16 µg/mL
same,MIC,Enterobacter cloacae; [3],0.25 µg/mL
same,MIC,Haemophilus influenzae; [3],0.06 to 0.12 µg/mL
same,MIC,Proteus vulgarisi; [2],0.12 µg/mL
same,MIC,Klebsiella pneumoniae; [3],0.06 to 0.12 µg/mL
same,MIC,Citrobacter koseri; [3],0.12 to 0.25 µg/mL
same,MIC,Klebsiella oxytoca; [3],0.06 to 0.12 µg/mL
same,MIC,[1]; [3],4 to 8 µg/mL
same,MIC,"Citrobacter freundi; Citrobacter freundi, 2-3 isolates/organism, read-out: MIC",0.25 to 2 µg/mL
same,MIC,Providencia stuartii; [3],0.12 to 0.64 µg/mL
same,MIC,Serratia marcescens; [3],0.12 to 0.25 µg/mL
same,MIC,Proteus mirabilis; [3],0.03 to 0.06 µg/mL
same,MIC,Escherichia coli; [3],0.06 µg/mL
same,MIC,Acinetobacter spp.,2 to 64 µg/mL
same,MIC,"Staph. spp. (coagulase−); Staph. spp. (coagulase−), 2-3 isolates/organism, read-out: MIC",16 to 32 µg/mL
same,MIC,Staph. spidermidis; [4],16 to 32 µg/mL
same,MIC,"Strept. agalactiae; Strept. agalactiae, 2-3 isolates/organism, read-out: MIC",0.5 µg/mL
same,MIC,"Entero. faecium (VRE); Entero. faecium (VRE), 2-3 isolates/organism, read-out: MIC",> 64 µg/mL
same,MIC,"Entero. faecalis; Entero. faecalis, 2-3 isolates/organism, read-out: MIC",> 64 µg/mL
same,MIC,"Staph. aureus (MRSA); Staph. aureus (MRSA), 2-3 isolates/organism, read-out: MIC",32 µg/mL
same,MIC,"Strept. pyogenes; Strept. pyogenes, 2-3 isolates/organism, read-out: MIC",0.12 µg/mL
same,MIC,"Strept. pneumoniae; Strept. pneumoniae, 2-3 isolates/organism, read-out: MIC",0.25 µg/mL
same,MIC,"Strept. viridians; Strept. viridians, 2-3 isolates/organism, read-out: MIC",0.5 to 4 µg/mL
"CCn1cc(C(=O)O)c(=O)c2cc(F)c(N3CCNCC3)cc21 [norfloxacin, reference compound]",increase in MIC by passage 15,MRSA ATCC 33591,64 fold
same,rise in MIC values by passage 3,MRSA ATCC 33591,4 doubling dilutions
same,increase in MIC by passage 15,MSSA ATCC 29213,128 fold
same,rise in MIC values by passage 3,MSSA ATCC 29213,4 doubling dilutions
